Experimental data: the supplement of paper PMC11451515

Tested on: P12-Ichikawa
Test: cell viability relative to DMSO control; higher = less cytotoxic
Settings: 48 h
Procedure, shortened: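 Viability was expressed as a per-plate percentage of DMSO wells, with cell-free wells as background. Leukemia cells (NOMO1 or SEM at 500 cells/well, P12-Ichikawa at 1000 cells/well) were adapted for at least four passages in each medium and seeded in 1536-well plates (5 μl). Library compounds in DMSO were pin-dosed over an 11-point threefold series from 47 μM to 0.79 nM, and CellTiter-Glo One luminescence was read after 48 h at 37°C.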

[1] = HPLM + 10% dialyzed FBS, 0.000781 µM
[2] = HPLM + 10% dialyzed FBS, 0.00234 µM
[3] = HPLM + 10% dialyzed FBS, 0.00702 µM
[4] = HPLM + 10% dialyzed FBS, 0.0211 µM
[5] = HPLM + 10% dialyzed FBS, 0.0632 µM
[6] = HPLM + 10% dialyzed FBS, 0.19 µM
[7] = HPLM + 10% dialyzed FBS, 0.569 µM
[8] = HPLM + 10% dialyzed FBS, 1.71 µM
[9] = HPLM + 10% dialyzed FBS, 5.12 µM
[10] = HPLM + 10% dialyzed FBS, 15.4 µM
[11] = HPLM + 10% dialyzed FBS, 46.1 µM
[12] = RPMI 5 mM glucose + 10% FBS, 0.000781 µM
[13] = RPMI 5 mM glucose + 10% FBS, 0.00234 µM
[14] = RPMI 5 mM glucose + 10% FBS, 0.00702 µM
[15] = RPMI 5 mM glucose + 10% FBS, 0.0211 µM
[16] = RPMI 5 mM glucose + 10% FBS, 0.0632 µM
[17] = RPMI 5 mM glucose + 10% FBS, 0.19 µM
[18] = RPMI 5 mM glucose + 10% FBS, 0.569 µM
[19] = RPMI 5 mM glucose + 10% FBS, 1.71 µM
[20] = RPMI 5 mM glucose + 10% FBS, 5.12 µM
[21] = RPMI 5 mM glucose + 10% FBS, 15.4 µM
[22] = RPMI 5 mM glucose + 10% FBS, 46.1 µM
[23] = RPMI 5 mM glucose + 10% dialyzed FBS, 0.000781 µM
[24] = RPMI 5 mM glucose + 10% dialyzed FBS, 0.00234 µM
[25] = RPMI 5 mM glucose + 10% dialyzed FBS, 0.00702 µM
[26] = RPMI 5 mM glucose + 10% dialyzed FBS, 0.0211 µM
[27] = RPMI 5 mM glucose + 10% dialyzed FBS, 0.0632 µM
[28] = RPMI 5 mM glucose + 10% dialyzed FBS, 0.19 µM
[29] = RPMI 5 mM glucose + 10% dialyzed FBS, 0.569 µM
[30] = RPMI 5 mM glucose + 10% dialyzed FBS, 1.71 µM
[31] = RPMI 5 mM glucose + 10% dialyzed FBS, 5.12 µM
[32] = RPMI 5 mM glucose + 10% dialyzed FBS, 15.4 µM
[33] = RPMI 5 mM glucose + 10% dialyzed FBS, 46.1 µM

## CN(C(=O)c1ccc(F)cc1C(F)(F)F)C1CCN(c2nnc(-c3ccnn3C)c3ccccc23)CC1
[1]
  cell viability: 74.9%
[2]
  cell viability: 88.9%
[3]
  cell viability: 77.9%
[4]
  cell viability: 85.9%
[5]
  cell viability: 89.2%
[6]
  cell viability: 81.8%
[7]
  cell viability: 82.1%
[8]
  cell viability: 84.5%
[9]
  cell viability: 79.4%
[10]
  cell viability: 85.4%
[11]
  cell viability: 47.3%
[12]
  cell viability: 75.1%
[13]
  cell viability: 83.3%
[14]
  cell viability: 81.5%
[15]
  cell viability: 76.2%
[16]
  cell viability: 78.5%
[17]
  cell viability: 81.5%
[18]
  cell viability: 79.4%
[19]
  cell viability: 71.7%
[20]
  cell viability: 75.3%
[21]
  cell viability: 82.8%
[22]
  cell viability: 39.6%
[23]
  cell viability: 73.7%
[24]
  cell viability: 70.6%
[25]
  cell viability: 72.8%
[26]
  cell viability: 78.5%
[27]
  cell viability: 79.9%
[28]
  cell viability: 84.8%
[29]
  cell viability: 75.9%
[30]
  cell viability: 75.1%
[31]
  cell viability: 74.3%
[32]
  cell viability: 77.7%
[33]
  cell viability: 38.2%

## Nc1ccc([S+](=O)([O-])Nc2ccccn2)cc1
[1]
  cell viability: 117%
[2]
  cell viability: 116%
[3]
  cell viability: 115%
[4]
  cell viability: 123%
[5]
  cell viability: 117%
[6]
  cell viability: 117%
[7]
  cell viability: 130%
[8]
  cell viability: 119%
[9]
  cell viability: 115%
[10]
  cell viability: 120%
[11]
  cell viability: 125%
[12]
  cell viability: 105%
[13]
  cell viability: 105%
[14]
  cell viability: 113%
[15]
  cell viability: 117%
[16]
  cell viability: 118%
[17]
  cell viability: 112%
[18]
  cell viability: 121%
[19]
  cell viability: 116%
[20]
  cell viability: 127%
[21]
  cell viability: 123%
[22]
  cell viability: 127%
[23]
  cell viability: 113%
[24]
  cell viability: 117%
[25]
  cell viability: 116%
[26]
  cell viability: 113%
[27]
  cell viability: 119%
[28]
  cell viability: 115%
[29]
  cell viability: 125%
[30]
  cell viability: 119%
[31]
  cell viability: 124%
[32]
  cell viability: 131%
[33]
  cell viability: 127%

## CC1=C(/C=C/C(C)=C/C=C/C(C)=C/C(=O)Nc2ccc(O)cc2)C(C)(C)CCC1
[1]
  cell viability: 85.1%
[2]
  cell viability: 83.4%
[3]
  cell viability: 85.5%
[4]
  cell viability: 96.1%
[5]
  cell viability: 90.8%
[6]
  cell viability: 91.8%
[7]
  cell viability: 93.8%
[8]
  cell viability: 68.5%
[9]
  cell viability: 23.7%
[10]
  cell viability: 8.54%
[11]
  cell viability: 3.66%
[12]
  cell viability: 82%
[13]
  cell viability: 88.8%
[14]
  cell viability: 83%
[15]
  cell viability: 91.8%
[16]
  cell viability: 86.3%
[17]
  cell viability: 81.9%
[18]
  cell viability: 87%
[19]
  cell viability: 57.9%
[20]
  cell viability: 28.5%
[21]
  cell viability: 7.98%
[22]
  cell viability: 1.15%
[23]
  cell viability: 83.3%
[24]
  cell viability: 85.9%
[25]
  cell viability: 84%
[26]
  cell viability: 84.8%
[27]
  cell viability: 83.4%
[28]
  cell viability: 81.5%
[29]
  cell viability: 83.3%
[30]
  cell viability: 23.8%
[31]
  cell viability: 6.39%
[32]
  cell viability: 4.24%
[33]
  cell viability: 1.74%

## O=C(Oc1ccc([N+](=O)[O-])cc1)N1CCN(Cc2cccc(Oc3ccccc3)c2)CC1
[1]
  cell viability: 96.8%
[2]
  cell viability: 101%
[3]
  cell viability: 106%
[4]
  cell viability: 116%
[5]
  cell viability: 113%
[6]
  cell viability: 112%
[7]
  cell viability: 114%
[8]
  cell viability: 111%
[9]
  cell viability: 113%
[10]
  cell viability: 102%
[11]
  cell viability: 104%
[12]
  cell viability: 105%
[13]
  cell viability: 98%
[14]
  cell viability: 112%
[15]
  cell viability: 114%
[16]
  cell viability: 111%
[17]
  cell viability: 112%
[18]
  cell viability: 122%
[19]
  cell viability: 118%
[20]
  cell viability: 102%
[21]
  cell viability: 102%
[22]
  cell viability: 107%
[23]
  cell viability: 101%
[24]
  cell viability: 92.2%
[25]
  cell viability: 100%
[26]
  cell viability: 101%
[27]
  cell viability: 105%
[28]
  cell viability: 101%
[29]
  cell viability: 105%
[30]
  cell viability: 114%
[31]
  cell viability: 103%
[32]
  cell viability: 109%
[33]
  cell viability: 108%

## COc1ccc2cc(-c3[nH]c(-c4ccc([S+](C)[O-])cc4)nc3-c3ccncc3)ccc2c1 (configuration not stated)
[1]
  cell viability: 113%
[2]
  cell viability: 114%
[3]
  cell viability: 116%
[4]
  cell viability: 105%
[5]
  cell viability: 117%
[6]
  cell viability: 119%
[7]
  cell viability: 124%
[8]
  cell viability: 120%
[9]
  cell viability: 123%
[10]
  cell viability: 112%
[11]
  cell viability: 99.3%
[12]
  cell viability: 105%
[13]
  cell viability: 112%
[14]
  cell viability: 118%
[15]
  cell viability: 120%
[16]
  cell viability: 130%
[17]
  cell viability: 127%
[18]
  cell viability: 128%
[19]
  cell viability: 130%
[20]
  cell viability: 142%
[21]
  cell viability: 120%
[22]
  cell viability: 80.7%
[23]
  cell viability: 104%
[24]
  cell viability: 113%
[25]
  cell viability: 105%
[26]
  cell viability: 118%
[27]
  cell viability: 119%
[28]
  cell viability: 117%
[29]
  cell viability: 124%
[30]
  cell viability: 128%
[31]
  cell viability: 120%
[32]
  cell viability: 122%
[33]
  cell viability: 57.6%

## O=C(c1ccc(F)cc1)C1CCN(CCn2c(=O)[nH]c3ccccc3c2=O)CC1
[23]
  cell viability: 121%
[24]
  cell viability: 125%
[25]
  cell viability: 118%
[26]
  cell viability: 120%
[27]
  cell viability: 118%
[28]
  cell viability: 121%
[29]
  cell viability: 140%
[30]
  cell viability: 110%
[31]
  cell viability: 116%
[32]
  cell viability: 112%
[33]
  cell viability: 102%

## COc1ccc(-c2c(-c3ccc(O)cc3O)n[nH]c2C)cc1
[1]
  cell viability: 108%
[2]
  cell viability: 101%
[3]
  cell viability: 117%
[4]
  cell viability: 112%
[5]
  cell viability: 114%
[6]
  cell viability: 106%
[7]
  cell viability: 112%
[8]
  cell viability: 107%
[9]
  cell viability: 105%
[10]
  cell viability: 101%
[11]
  cell viability: 78.1%
[12]
  cell viability: 99.8%
[13]
  cell viability: 105%
[14]
  cell viability: 105%
[15]
  cell viability: 100%
[16]
  cell viability: 110%
[17]
  cell viability: 106%
[18]
  cell viability: 105%
[19]
  cell viability: 112%
[20]
  cell viability: 102%
[21]
  cell viability: 95.6%
[22]
  cell viability: 68.6%
[23]
  cell viability: 101%
[24]
  cell viability: 106%
[25]
  cell viability: 110%
[26]
  cell viability: 111%
[27]
  cell viability: 107%
[28]
  cell viability: 113%
[29]
  cell viability: 113%
[30]
  cell viability: 113%
[31]
  cell viability: 105%
[32]
  cell viability: 101%
[33]
  cell viability: 89.5%

## CN1[C@@H]2CC(O)C[C@H]1[C@@H]1O[C@@H]12 (some centres not stated)
[1]
  cell viability: 122%
[2]
  cell viability: 121%
[3]
  cell viability: 124%
[4]
  cell viability: 105%
[5]
  cell viability: 119%
[6]
  cell viability: 115%
[7]
  cell viability: 119%
[8]
  cell viability: 120%
[9]
  cell viability: 114%
[10]
  cell viability: 119%
[11]
  cell viability: 6.79%
[12]
  cell viability: 122%
[13]
  cell viability: 113%
[14]
  cell viability: 123%
[15]
  cell viability: 119%
[16]
  cell viability: 135%
[17]
  cell viability: 121%
[18]
  cell viability: 119%
[19]
  cell viability: 125%
[20]
  cell viability: 107%
[21]
  cell viability: 104%
[22]
  cell viability: 18.3%
[23]
  cell viability: 118%
[24]
  cell viability: 119%
[25]
  cell viability: 127%
[26]
  cell viability: 112%
[27]
  cell viability: 125%
[28]
  cell viability: 120%
[29]
  cell viability: 120%
[30]
  cell viability: 113%
[31]
  cell viability: 106%
[32]
  cell viability: 120%
[33]
  cell viability: 4.64%
